The source of these data is paper PMC8865125, “Isocoumarins: a new class of selective carbonic anhydrase IX and XII inhibitors” (Journal of Enzyme Inhibition and Medicinal Chemistry, 2022).

Holding throughout (test): stopped-flow CO2 hydrase assay
Common to all, as to assay type: biochemical

The target of assay [1] is T1, hCA IX (Homo sapiens, UniProt Q16790).
T1 construct: gene CA9; recombinant
The following applies: read-out: KI (μM)^a^,b / hCA IX. The source says: stopped-flow CO2 hydrase assay on hCA IX

The target of assay [2] is T2, hCA XII (Homo sapiens, UniProt O43570).
T2 construct: gene CA12; recombinant
T2 sequence (O43570 25-354 limits assumed): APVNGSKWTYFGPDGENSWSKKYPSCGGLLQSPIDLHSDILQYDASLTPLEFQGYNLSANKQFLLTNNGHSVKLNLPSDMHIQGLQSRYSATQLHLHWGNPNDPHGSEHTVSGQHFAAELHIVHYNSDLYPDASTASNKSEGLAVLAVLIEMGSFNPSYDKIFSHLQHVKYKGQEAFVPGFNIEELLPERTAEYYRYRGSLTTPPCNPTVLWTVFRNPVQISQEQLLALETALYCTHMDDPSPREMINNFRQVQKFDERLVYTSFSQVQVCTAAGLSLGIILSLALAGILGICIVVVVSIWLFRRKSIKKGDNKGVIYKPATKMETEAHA
The following applies: read-out: KI (μM)^a^,b / hCA XII. The source says:
stopped-flow CO2 hydrase assay on hCA XII

Assay [3] has as its target T3, hCA II (Homo sapiens, UniProt P00918).
T3 construct: gene CA2; recombinant
The note with it: read-out: KI (μM)^a^,b / hCA I.

The target of assay [4] is T4, hCA I (Homo sapiens, UniProt P00915).
T4 construct: gene CA1; recombinant
T4 sequence (P00915 2-261): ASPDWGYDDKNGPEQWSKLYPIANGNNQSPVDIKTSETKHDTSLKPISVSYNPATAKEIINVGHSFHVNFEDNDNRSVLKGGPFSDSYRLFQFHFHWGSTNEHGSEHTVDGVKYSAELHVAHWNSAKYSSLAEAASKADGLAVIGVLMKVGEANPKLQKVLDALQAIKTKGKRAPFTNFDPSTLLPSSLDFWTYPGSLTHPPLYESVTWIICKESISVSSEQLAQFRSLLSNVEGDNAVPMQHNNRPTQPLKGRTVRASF
The following applies: read-out: KI (μM)^a^,b / hCA I. An excerpt: stopped-flow CO2 hydrase assay on hCA I

The target in assay [5] is T1, hCA IX. The following applies: read-out: KI (μM)^a^,b / hCA I.
In assay [6] the target is T2, hCA XII. The note with it: read-out: KI (μM)^a^,b / hCA I.

Read-outs that look alike come from different tables or passages of the source.

Take `CC(=NNc1ccccc1)c1cc2ccccc2c(=O)o1` [X1, 3–(1-(2-phenylhydrazono)ethyl)-1H-isochromen-1-one]: the Ki was 4.3 µM in assay [1], 1.9 µM in assay [2], more than 100 µM in assay [3] and more than 100 µM in assay [4].
Consider `CC(=NNc1ccc(Cl)cc1)c1cc2ccccc2c(=O)o1` [X2, 3–(1-(2–(4-chlorophenyl) hydrazono)ethyl)-1H-isochromen-1-one], for which the Ki in assay [1] was 3.5 µM; in assay [2], 4.6 µM; in assay [3] it was more than 100 µM; in assay [4], more than 100 µM.
For the compound `CC(=NNc1ccc(C#N)cc1)c1cc2ccccc2c(=O)o1` [X3, 4–(2-(1–(1-oxo-1H-isochromen-3-yl)ethylidene)hydrazinyl) benzonitrile], the Ki is 1.2 µM in assay [2], more than 100 µM in assay [3] and more than 100 µM in assay [4].
Regarding `CC(=NNc1ccccc1)c1oc(=O)c2ccccc2c1C` [X4, 4-methyl-3–(1-(2-phenylhydrazono)ethyl)-1H-isochromen-1-one], the Ki is 3.9 µM in assay [1], 2.3 µM in assay [2], more than 100 µM in assay [3] and more than 100 µM in assay [4].
For `CC(=NNc1ccc(Cl)cc1)c1oc(=O)c2ccccc2c1C` [X5, 3–(1-(2–(4-chlorophenyl) hydrazono)ethyl)-4-methyl-1H-isochromen-1-one], the Ki in assay [1] is 2.7 µM; in assay [2], 5.8 µM; in assay [3], more than 100 µM; in assay [4], more than 100 µM.
As to `O=Cc1cn(-c2ccccc2)nc1-c1cc2ccccc2c(=O)o1` [X6, 3–(1-oxo-1H-isochromen-3-yl)-1-phenyl-1H-pyrazole-4-carbaldehyde], the Ki in assay [1] is 7.1 µM; in assay [2] it was 6.5 µM; in assay [3], more than 100 µM; in assay [4] it was more than 100 µM.
As for `O=Cc1cn(-c2ccc(Cl)cc2)nc1-c1cc2ccccc2c(=O)o1` [X7, 1–(4-chlorophenyl)-3–(1-oxo-1H-isochromen-3-yl)-1H-pyrazole-4-carbaldehyde], the Ki is 6.2 µM in assay [1], 11.6 µM in assay [2], more than 100 µM in assay [3] and more than 100 µM in assay [4].
Turning to `N#Cc1ccc(-n2cc(C=O)c(-c3cc4ccccc4c(=O)o3)n2)cc1` [X8, 4–(4-formyl-3–(1-oxo-1H-isochromen-3-yl)-1H-pyrazol-1-yl) benzonitrile], the Ki in assay [1] is 8 µM; in assay [2], 8.3 µM; in assay [3], more than 100 µM; in assay [4] it was more than 100 µM.
Turning to `Cc1c(-c2nn(-c3ccccc3)cc2C=O)oc(=O)c2ccccc12` [X9, 3–(4-methyl-1-oxo-1H-isochromen-3-yl)-1-phenyl-1H-pyrazole-4-carbaldehyde], the Ki in assay [1] was 8.9 µM; in assay [2], 8.1 µM; in assay [3], more than 100 µM; in assay [4] it was more than 100 µM.
In the case of `Cc1c(-c2nn(-c3ccc(Cl)cc3)cc2C=O)oc(=O)c2ccccc12` [X10, 1–(4-chlorophenyl)-3–(4-methyl-1-oxo-1H-isochromen-3-yl)-1H-pyrazole-4-carbaldehyde], the Ki in assay [1] was 8.1 µM; in assay [2], 13.4 µM; in assay [3], more than 100 µM; in assay [4], more than 100 µM.
As for `O=C1NC(=O)C(=Cc2cn(-c3ccccc3)nc2-c2cc3ccccc3c(=O)o2)C(=O)N1` [X11, 5-((3–(1-oxo-1H-isochromen-3-yl)-1-phenyl-1H-pyrazol-4-yl)methylene) pyrimidine-2,4,6(1H,3H,5H)-trione], the Ki was 46.2 µM in assay [1], 41.7 µM in assay [2], more than 100 µM in assay [3] and more than 100 µM in assay [4].
`O=C1NC(=O)C(=Cc2cn(-c3ccc(Cl)cc3)nc2-c2cc3ccccc3c(=O)o2)C(=O)N1` [X12, 5-((1–(4-chlorophenyl)-3–(1-oxo-1H-isochromen-3-yl)-1H-pyrazol-4-yl)methylene) pyrimidine-2,4,6(1H,3H,5H)-trione]: the Ki in assay [5], in assay [6], in assay [3] and in assay [4] was more than 100 µM throughout.
Turning to `N#Cc1ccc(-n2cc(C=C3C(=O)NC(=O)NC3=O)c(-c3cc4ccccc4c(=O)o3)n2)cc1` [X13, 4–(3-(1-oxo-1H-isochromen-3-yl)-4-((2,4,6-trioxotetrahydropyrimidin-5(2H)-ylidene)methyl)-1H-pyrazol-1-yl) benzonitrile], the Ki in assay [1] was 62.4 µM; in assay [2], 36.2 µM; in assay [3] it was more than 100 µM; in assay [4], more than 100 µM.
As to `Cc1c(-c2nn(-c3ccccc3)cc2C=C2C(=O)NC(=O)NC2=O)oc(=O)c2ccccc12` [X14, 5-((3–(4-methyl-1-oxo-1H-isochromen-3-yl)-1-phenyl-1H-pyrazol-4-yl)methylene) pyrimidine-2,4,6(1H,3H,5H)-trione], the Ki in assay [1] is 54.6 µM; in assay [2], 66.5 µM; in assay [3], more than 100 µM; in assay [4], more than 100 µM.
For the compound `Cc1c(-c2nn(-c3ccc(Cl)cc3)cc2C=C2C(=O)NC(=O)NC2=O)oc(=O)c2ccccc12` [X15, 5-((1–(4-chlorophenyl)-3–(4-methyl-1-oxo-1H-isochromen-3-yl)-1H-pyrazol-4-yl)methylene) pyrimidine-2,4,6(1H,3H,5H)-trione], the Ki in assay [5], in assay [6], in assay [3] and in assay [4] was more than 100 µM each time.
For `O=C1NC(=S)NC(=O)C1=Cc1cn(-c2ccccc2)nc1-c1cc2ccccc2c(=O)o1` [X16, 5-((3–(1-oxo-1H-isochromen-3-yl)-1-phenyl-1H-pyrazol-4-yl)methylene)-2-thioxodihydropyrimidine-4,6(1H,5H)-dione], the Ki in assay [1] was 49.7 µM; in assay [2] it was 47.1 µM; in assay [3], more than 100 µM; in assay [4] it was more than 100 µM.
As to `O=C1NC(=S)NC(=O)C1=Cc1cn(-c2ccc(Cl)cc2)nc1-c1cc2ccccc2c(=O)o1` [X17, 5-((1–(4-chlorophenyl)-3–(1-oxo-1H-isochromen-3-yl)-1H-pyrazol-4-yl)methylene)-2-thioxodihydropyrimidine-4,6(1H,5H)-dione], the Ki in assay [5], in assay [6], in assay [3] and in assay [4] was more than 100 µM each time.
As for `N#Cc1ccc(-n2cc(C=C3C(=O)NC(=S)NC3=O)c(-c3cc4ccccc4c(=O)o3)n2)cc1` [X18, 4–(4-((4,6-dioxo-2-thioxotetrahydropyrimidin-5(2H)-ylidene)methyl)-3–(1-oxo-1H-isochromen-3-yl)-1H-pyrazol-1-yl) benzonitrile], the Ki is 78.9 µM in assay [1], 53.4 µM in assay [2], more than 100 µM in assay [3] and more than 100 µM in assay [4].
For the compound `Cc1c(-c2nn(-c3ccccc3)cc2C=C2C(=O)NC(=S)NC2=O)oc(=O)c2ccccc12` [X19, 5-((3–(4-methyl-1-oxo-1H-isochromen-3-yl)-1-phenyl-1H-pyrazol-4-yl)methylene)-2-thioxodihydropyrimidine-4,6(1H,5H)-dione], the Ki in assay [1] is 72.3 µM; in assay [2], 62.8 µM; in assay [3], more than 100 µM; in assay [4] it was more than 100 µM.
On to `Cc1c(-c2nn(-c3ccc(Cl)cc3)cc2C=C2C(=O)NC(=S)NC2=O)oc(=O)c2ccccc12` [X20, 5-((1–(4-chlorophenyl)-3–(4-methyl-1-oxo-1H-isochromen-3-yl)-1H-pyrazol-4-yl)methylene)-2-thioxodihydropyrimidine-4,6(1H,5H)-dione], for which the Ki in assay [5], in assay [6], in assay [3] and in assay [4] was more than 100 µM each time.
